Here are results for 1 molecule from article PMC12022980, “Rational Design of PROTAC Linkers Featuring Ferrocene as a Molecular Hinge to Enable Dynamic Conformational Changes” (Journal of the American Chemical Society, 2025).

In one series the target is T1, CRBN (Homo sapiens, UniProt Q96SW2).
T1 construct: endogenous in cells; host or cells: HEK293 (ATCC)
Also noted: method as in PMID 30826187. As to conditions: cited from earlier work.

Series [1] can be described thus: HBD acidity NMR score (ANMR), amide NH shifts in CDCl3 vs DMSO-d6. It is filed as physicochemical. From the text:
With this premise, we performed NMR studies to quantify the HBD solvent exposure of the amide protons using the HBD Acidity NMR score (ANMR)[47] and variable temperature studies (vt-NMR).[48] To note, although vt-NMR has originally been developed and applied to the study of peptides,[49] it is, together with the ANMR value, a well-established method for studying the intramolecular hydrogen bonding (IMHB) patterns in systems such as PROTACs[10],[12],[18],[26] as well as in ferrocene structures.[29],[50]−[53]
Considering the assumed flexibility of the ferrocene moiety, we anticipated the amide protons in AS4 next to the ferrocene moiety, i.e., N(3)-H and N(4)-H, to show greater shielding effects in CDCl3 as compared to DMSO-d6, consistently with a preference for the cis conformation. In contrast, in the presence of a strong hydrogen-bond acceptor solvent such as DMSO-d6, the intercalation of polar solvent molecules is likely to disrupt the IMHB, favoring an expanded trans conformation[50] of the substituent chains (Figure 4A). An initial analysis of the ^1H NMR spectra was obtained on samples in deuterated CDCl3 and DMSO-d6. […]
The chemical shift difference between the two solvents (Δδ) can be converted into hydrogen bond acidity (ANMR) for a quantitative assessment of IMHB. […]
Standard NMR experiments were performed at 298 K, while variable-temperature NMR experiments recorded spectra across a temperature range from 298 K to 328 K allowing a sufficient temperature equilibration time (10–15 min) before signal acquisition. All NOESY spectra for conformational analysis as well as the assignment spectra in methanol-d 4 were recorded on a 500 MHz Bruker Avance III equipped with a 5 mm QCI cryogenic probe. NOESY spectra were obtained from a sample at 1.25 mM in CDCl3 and 1.25 mM in methanol-d4, recorded at 298 K, using 16 transients, 1024 points in the direct dimension and 512 points in the indirect dimension, a relaxation delay of 1.5 s, and a mixing time of 700 ms. All other spectra used for signal assignment in CDCl3 were recorded on 500 MHz Bruker Avance NEO with a BBFO SmartProbe. […]

The structures appear in SMILES notation.

T1 sequence (Q96SW2 whole entry): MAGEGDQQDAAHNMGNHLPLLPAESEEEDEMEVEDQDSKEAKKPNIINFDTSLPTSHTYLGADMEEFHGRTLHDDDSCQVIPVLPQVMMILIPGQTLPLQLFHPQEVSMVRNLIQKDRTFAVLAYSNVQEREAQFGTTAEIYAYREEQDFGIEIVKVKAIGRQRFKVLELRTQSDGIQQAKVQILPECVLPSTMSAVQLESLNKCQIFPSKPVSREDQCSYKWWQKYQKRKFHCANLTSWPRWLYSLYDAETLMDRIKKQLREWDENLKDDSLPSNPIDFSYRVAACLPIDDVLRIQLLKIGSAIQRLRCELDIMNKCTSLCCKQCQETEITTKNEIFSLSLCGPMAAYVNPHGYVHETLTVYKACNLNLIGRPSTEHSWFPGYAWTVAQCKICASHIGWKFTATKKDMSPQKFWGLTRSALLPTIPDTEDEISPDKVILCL

Consider `Cc1ncsc1-c1ccc(CNC(=O)[C@@H]2C[C@@H](O)CN2C(=O)[C@@H](NC(=O)CCCCCOCCOCCCCCC(=O)Nc2cccc3c2C(=O)N(C2CCC(=O)NC2=O)C3=O)C(C)(C)C)cc1` (stereo partly shown) [14a], for which the DC50 at CRBN is 200 nM. In addition, in series [1], the “ANMR N(1)-H” value worked out at 0.16, the “Δδ N(1)-H” value worked out at 1.16 ppm and the “Δδ N(2)-H” value turned out to be 0.15 ppm.
